{"source": "patent US20230065953A1", "about": "“NOVEL HETEROARYL-TRIAZOLE COMPOUNDS AS PESTICIDES” (Bayer Aktiengesellschaft, priority 2019, published 2023)", "format_in_all_cases": "in vivo", "key": {"[1]": {"tested_on": "larvae of the banded cucumber beetle (Diabrotica balteata)", "test": "Diabrotica balteata spray test", "settings": "168 h, 100 g/ha (=32 μg/well), wheat seeds, after 7 days, read-out: efficacy (seedling growth)", "how_it_was_run": "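Wheat seeds germinated 1 day on agar were sprayed with compound in acetone/dimethylformamide with alkylarylpolyglycol ether emulsifier, diluted in emulsifier-containing water. Each unit then received 10-20 larvae, and % efficacy was scored after 7 days.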"}, "[2]": {"tested_on": "adult mosquitoes Anopheles funestus strain FUMOZ-R", "test": "Anopheles funestus test (ANPHFU surface treatment & contact assay)", "settings": "surface concentration 4 mg/m^2, 30 min exposure, 24 hours after contact, read-out: efficacy (mortality)", "description": "Anopheles funestus Test (ANPHFU Surface Treatment & Contact Assay) • Solvent: Aceton+2000 ppm rapeseed oil methyl ester (RME)\n(§1) In order to produce a sufficient, active ingredient containing solution it is necessary to solve the test compound in the solvent-mix (acetone at 2 mg/ml/RME 2000 ppm). This solution is pipetted onto a glazed tile and after evaporation of the acetone, adult mosquitoes of the species Anopheles funestus strain FUMOZ-R (Hunt et al., Med. Vet. Entomol. 2005 September; 19(3): 271-275) are placed onto the dried surface. The exposure time is 30 minutes.\n(§2) Mortality in percent (%) is determined 24 hours after contact of the insects to the treated surface. 100% mortality means that all tested insects are dead, whereas 0% means that no insect died."}, "[3]": {"tested_on": "adult mosquitoes Aedes aegypti strain MONHEIM", "test": "Aedes aegypti test (AEDSAE surface treatment & contact assay)", "settings": "24 hours after contact, read-out: efficacy (mortality); for mortality at 4 mg/m2: surface concentration 4 mg/m^2, 30 min exposure; for mortality at 20 mg/m2: surface concentration 20 mg/m^2, 30 min exposure", "how_it_was_run": "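Test compound in acetone (2 mg/ml) with 2000 ppm rapeseed oil methyl ester was dried onto a glazed tile. Adult Aedes aegypti MONHEIM were exposed to the treated surface for 30 minutes. Percent mortality was scored 24 hours after contact.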"}, "[4]": {"tested_on": "cattle ticks (Rhipicephalus microplus) strain Parkhurst, SP-resistant", "test": "Rhipicephalus (Boophilus) microplus dip test", "settings": "100 ppm, egg deposition after 7 days", "description": "Rhipicephalus (Boophilus) Microplus—Dip Test\nTest animal: cattle ticks (Rhipicephalus microplus) strain Parkhurst, SP-resistant\nSolvent: dimethyl sulfoxide\nTo produce a suitable preparation of active compound, 10 mg of active compound are dissolved in 0.5 mL solvent, and the concentrate is diluted with water to the desired concentration.\nThis compound solution is pipetted into tubes. 8-10 engorged, adult, female cattle ticks (Rhipicephalus microplus) are placed in perforated tubes. These tubes are immersed in the aqueous compound solution until the ticks are completely moistened. After the liquid has drained off, the ticks are transferred to a filter paper in a plastic tray and stored in a climate chamber.\nAfter 7 days egg deposition of fertile eggs is monitored. Eggs where fertility is not visible are stored in a climate chamber till hatching after about 42 days. An efficacy of 100% means all eggs are infertile; 0% means all eggs are fertile."}, "[5]": {"tested_on": "adult mosquitoes Culex quinquefasciatus strain P00", "test": "whole plant or invertebrate", "settings": "read-out: efficacy (mortality)", "description": "Culex quinquefasciatus Test (CULXFA Surface Treatment & Contact Assay) • Solvent: Aceton+2000 ppm rapeseed oil methyl ester (RME)\nas §1, with “2 OOOppm).” for “2000 ppm).”, “Culex quinquefasciatus” for “Anopheles funestus”, “P00” for “FUMOZ-R (Hunt et al., Med. Vet. Entomol. 2005 September; 19(3): 271-275)”\nas §2"}, "[6]": {"tested_on": "brown planthopper (Nilaparvata lugens)", "test": "Nilaparvata lugens spray test", "settings": "96 h, 100 g/ha, rice plants, after 4 days", "description": "Nilaparvata lugens—Spray Test • Solvent: 78.0 parts by weight of acetone • 1.5 parts by weight of dimethylformamide • Emulsifier: alkylarylpolyglycol ether\nTo produce a suitable preparation of active compound, 1 part by weight of active compound is mixed with the stated amount of solvents and is diluted with water, containing an emulsifier concentration of 1000 ppm, to the desired concentration. Further test concentrations are prepared by dilution with emulsifier containing water.\nRice plants (Oryza sativa) are sprayed with a preparation of the active ingredient of the desired concentration and the plants are infested with the brown planthopper (Nilaparvata lugens).\nAfter 4 days mortality in % is determined. 100% means all planthoppers have been killed and 0% means none of the planthoppers have been killed."}, "[7]": {"tested_on": "green peach aphid (Myzus persicae)", "test": "Myzus persicae spray test", "settings": "foliar, 120 h, Chinese cabbage leaf disks, after 5 days", "how_it_was_run": "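Chinese cabbage leaf discs infested with all instars of the aphid were sprayed with compound prepared in acetone/DMF and diluted in water containing 1000 ppm emulsifier. Mortality (%) was scored after 5 days, 100% meaning all aphids killed and 0% none.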"}, "[8]": {"tested_on": "larvae of the southern green stink bug (Nezara viridula)", "test": "Nezara viridula spray test", "settings": "in Hordeum vulgare, 96 h", "how_it_was_run": "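Barley plants sprayed with compound in acetone/dimethylformamide, diluted in water with 1000 ppm alkylarylpolyglycol ether emulsifier, then infested with Nezara viridula larvae. Percent mortality read after 4 days (100% = all killed, 0% = none).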"}}}
{"smiles": "C[C@H](NC(=O)c1cc(C(F)(F)F)cc(C(F)(F)F)c1)c1ncnn1-c1ncc(C#N)s1", "note": "[I-2]", "values": [{"measurement": "pest or weed control at 32 µg/disc, 100 g/ha", "setting": "[1]", "result": 100, "unit": "%"}, {"measurement": "mortality at 4 mg/m2", "setting": "[2]", "result": "80 to 100", "unit": "%"}, {"measurement": "mortality at 4 mg/m2", "setting": "[3]", "result": "80 to 100", "unit": "%"}, {"measurement": "mortality at 20 mg/m2", "setting": "[3]", "result": "80 to 100", "unit": "%"}, {"measurement": "efficacy (infertile eggs)", "setting": "[4]", "result": 100, "unit": "%"}, {"measurement": "mortality at 4 mg/m2", "setting": "[5]", "result": "80 to 100", "unit": "%"}]}
{"smiles": "Cc1nc([C@H](C)NC(=O)c2cc(C(F)(F)F)cc(C(F)(F)F)c2)n(-c2ncc(C(=O)N(C)CC3CC3)s2)n1", "note": "[I-4]", "values": [{"measurement": "mortality at 100 g/ha", "setting": "[6]", "result": 90, "unit": "%"}, {"measurement": "pest or weed control at 32 µg/disc, 100 g/ha", "setting": "[1]", "result": 100, "unit": "%"}, {"measurement": "mortality at 100 g/ha", "setting": "[7]", "result": 90, "unit": "%"}, {"measurement": "mortality at 20 mg/m2", "setting": "[3]", "result": "80 to 100", "unit": "%"}]}
{"smiles": "Cc1nc([C@H](C)NC(=O)c2cc(C(F)(F)F)cc(C(F)(F)F)c2)n(-c2ncc(C(=O)N(C)C)s2)n1", "note": "[I-5, 2-(5-{(1S)-1-[3,5-bis(trifluoromethyl)benzamido]ethyl}-3-methyl-1H-1,2,4-triazol-1-yl)-N,N-dimethyl-1,3-thiazole-5-carboxamide]", "values": [{"measurement": "mortality at 100 g/ha", "setting": "[6]", "result": 100, "unit": "%"}, {"measurement": "pest or weed control at 32 µg/disc, 100 g/ha", "setting": "[1]", "result": 100, "unit": "%"}, {"measurement": "mortality at 100 g/ha", "setting": "[7]", "result": 90, "unit": "%"}, {"measurement": "efficacy (infertile eggs)", "setting": "[4]", "result": 100, "unit": "%"}]}
{"smiles": "CCN(C)C(=O)c1cnc(-n2nc(C)nc2[C@H](C)NC(=O)c2cc(C(F)(F)F)cc(C(F)(F)F)c2)s1", "note": "[I-6]", "values": [{"measurement": "mortality at 100 g/ha", "setting": "[6]", "result": 100, "unit": "%"}, {"measurement": "pest or weed control at 32 µg/disc, 100 g/ha", "setting": "[1]", "result": 100, "unit": "%"}, {"measurement": "mortality at 100 g/ha", "setting": "[7]", "result": 100, "unit": "%"}, {"measurement": "mortality at 4 mg/m2", "setting": "[3]", "result": "80 to 100", "unit": "%"}, {"measurement": "efficacy (infertile eggs)", "setting": "[4]", "result": 100, "unit": "%"}]}
{"smiles": "Cc1nc([C@H](C)NC(=O)c2cc(C(F)(F)F)cc(C(F)(F)F)c2)n(-c2ncc(C(=O)N(C)CC#N)s2)n1", "note": "[I-9]", "values": [{"measurement": "mortality at 100 g/ha", "setting": "[6]", "result": 100, "unit": "%"}, {"measurement": "pest or weed control at 32 µg/disc, 100 g/ha", "setting": "[1]", "result": 100, "unit": "%"}, {"measurement": "mortality at 100 g/ha", "setting": "[8]", "result": 90, "unit": "%"}, {"measurement": "mortality at 100 g/ha", "setting": "[7]", "result": 100, "unit": "%"}, {"measurement": "mortality at 4 mg/m2", "setting": "[3]", "result": "80 to 100", "unit": "%"}, {"measurement": "mortality at 20 mg/m2", "setting": "[3]", "result": "80 to 100", "unit": "%"}, {"measurement": "efficacy (infertile eggs)", "setting": "[4]", "result": 100, "unit": "%"}]}
{"smiles": "Cc1nc([C@H](C)NC(=O)c2cc(C(F)(F)F)cc(C(F)(F)F)c2)n(-c2ncc(C(N)=O)s2)n1", "note": "[I-21, 2-(5-{(1S)-1-[3,5-bis(trifluoromethyl)benzamido]ethyl}-3-methyl-1H-1,2,4-triazol-1-yl)-1,3-thiazole-5-carboxamide]", "values": [{"measurement": "pest or weed control at 32 µg/disc, 100 g/ha", "setting": "[1]", "result": 100, "unit": "%"}, {"measurement": "mortality at 100 g/ha", "setting": "[8]", "result": 100, "unit": "%"}, {"measurement": "mortality at 100 g/ha", "setting": "[7]", "result": 100, "unit": "%"}, {"measurement": "mortality at 4 mg/m2", "setting": "[3]", "result": "80 to 100", "unit": "%"}, {"measurement": "mortality at 20 mg/m2", "setting": "[3]", "result": "80 to 100", "unit": "%"}]}
